Drawing on the OligoGym collection, this text covers target mRNA inhibition for 29 sequences.

Values joined by “and” are separate entries in the source; they are usually repeats but may differ in a detail not shown here. Equal values may be shown once. After the bases stand the sugars from the 5' end (letter, count) and the backbone: PS all phosphorothioate, else s phosphorothioate and o phosphodiester by linkage. Methylation of C is not given here. e = 2'-O-(2-methoxyethyl) (MOE); k = constrained ethyl (cEt); d = 2'-deoxy (DNA)

The target in this series is KRAS. The conditions noted are these: ASO.

In turn, “ATGCTGTGAAACTCTC (sugars kddddddddddkekek, PS)” displayed a target mRNA inhibition (A431, 2 µM) of 18%.
In the case of AGGAGTCTTTATAGTA (sugars k3 d10 k3, PS), the target mRNA inhibition was 14% (A431, 0.185 µM); 42% (A431, 0.556 µM); 58% (A431, 1.667 µM); 66% and 65% and 57% (A431, 2 µM); 77% (A431, 5 µM).
In turn, TGAAAAGTGTTTATGC (sugars k3 d10 k3, PS) displayed a target mRNA inhibition (A431, 2 µM) of 40%.
Consider “GTTTATGCAATGTTAA (sugars kkddddddddkekekk, PS)”, for which the target mRNA inhibition runs as follows: (A431, 0.185 µM) 27%; (A431, 0.556 µM) 46%; (A431, 1.667 µM) 45%; (A431, 2 µM) 57%; (A431, 5 µM) 79%.
Consider ACAGATTGTGCTGAGC (sugars k3 d10 k3, PS), for which, for the setting “A431, 2 µM”, the target mRNA inhibition came out at 46%.
“AGTGTGACTCAGTTAA (sugars k3 d9 k3 e1, PS)”: for the setting “A431, 2 µM”, the target mRNA inhibition amounted to 15%.
“TGATTTGTCAGCAGGA (sugars kkkddddddddkekek, PS)” returned a target mRNA inhibition (A431, 2 µM) of 41%.
CAAGATGACACTAATA (sugars k3 d10 k3, PS) showed a target mRNA inhibition (A431, 2 µM) of 18%.
On the same count and under the same terms, for TAATCCATTTATGTGA (sugars k3 d10 k3, PS) the value was 31%; for CTTTTTGACAAATGGA (sugars k3 d10 k3, PS), 22%; for “CTTGATTTGTCAGCAG (sugars kkkddddddddkdkdk, PS)”, 33%.
Under “A431, 2 µM”, “GTTTATGCAATGTTAA (sugars kddddddddddkekek, PS)” displayed a target mRNA inhibition of 37%.
On the same count and under the same terms, for AAGTGTTTATGCAATG (sugars k3 d10 k3, PS) the value was 45%; for TCAAAGTTCACATAAA (sugars k3 d10 k3, PS), 19%; for AAGGTAAAAGCTAACA (sugars k3 d10 k3, PS), 21%.
The same measure, in the same setting: for AATGTCACAAGCAGAA (sugars k3 d10 k3, PS) the value was 49%; for “ATTGTGCTGAGCTTGA (sugars kdddddddddkekeke, PS)”, 18%.
Turning to ATCTTTTAATGTCACA (sugars k3 d10 k3, PS), the target mRNA inhibition by setting is: (A431, 0.037 µM) 74%; (A431, 2 µM) 58%; (A431, 5 µM) 97% and 96%; (NCI-H460, 0.037 µM) 65.3%.
As for GATGGTGTAACATAGG (sugars k3 d10 k3, PS), the target mRNA inhibition runs as follows: (A431, 0.185 µM) 8%; (A431, 0.556 µM) 30%; (A431, 1.667 µM) 56%; (A431, 2 µM) 60%; (A431, 5 µM) 68%.
Sequence AGCTTGATCGAAGAGT (sugars k3 d10 k3, PS) registered a target mRNA inhibition (A431, 5 µM) of 50%.
Consider “GTGTTTATGCAATGTT (sugars kkkddddddddkdkdk, PS)”, for which the target mRNA inhibition is 70% and 58% (A431, 0.125 µM); 27% (A431, 0.185 µM); 47% (A431, 0.556 µM); 73% (A431, 1.667 µM); 81% (A431, 5 µM).
Consider GTAAAAGCTAACAGTC (sugars k3 d10 k3, PS), for which the target mRNA inhibition (A431, 2 µM) turned out to be 21%.
Where the note is “A431, 2 µM”, “AGTGTGACTCAGTTAA (sugars kkdddddddddkdkdk, PS)” returned a target mRNA inhibition of 38%.
Still for that read-out and setting: for “TGTTTATGCAATGTTA (sugars kkdddddddddkdkdk, PS)” the value was 46%; for “ATGGTGTAACATAGGT (sugars kdddddddddkekeke, PS)”, 39%.
In the case of TGCAATGTTAATTTAA (sugars k3 d10 k3, PS), the target mRNA inhibition (A431, 2 µM) worked out at 13%.
On the same count and under the same terms, for “GTCCAGTGATACTTTC (sugars kddddddddddkekek, PS)” the value was 36%.
In turn, “GTGTGACTCAGTTAAA (sugars kddddddddddkekek, PS)” registered a target mRNA inhibition (A431, 2 µM) of 30%.
For the sequence “TGTTTATGCAATGTTA (sugars kkddddddddddkeke, PS)”, the target mRNA inhibition (A431, 2 µM) was found to be 23%.
